We go through one compound from patent US20090053793A1, “Ethanol resistant and furfural resistant strains of E. coli FBR5 for production of ethanol from cellulosic biomass” (Rowan University, priority 2006, published 2009).

The assay is described as follows: Pilot batch fermentation in LB broth with xylose. The arrangement: species or system E. coli. The conditions noted are these: pilot fermentations. On the procedure:
Pilot fermentation studies were conducted in a 3L fermentation vessel in conjunction with a BioFlo 3000 system (which is marketed by New Brunswick Scientific Co. of Edison, N.J.) to monitor temperature, dissolved oxygen, air flow rate, agitation rate and pH. The media used for fermentation consisted of LB broth, xylose at various concentrations, and ampicillin. For some runs, glucose was also added to the media (see the mixed sugar fermentation discussed in connection with FIG. 12 below). To ensure sterility, the fermentor, with the media inside, along with the condenser, and a flask of distilled water were autoclaved the day before each fermentation run. An overnight culture of the strain to be used in the fermentation was then grown the night before each run. The fermentor was connected to the BioFlo 3000 system when ready to begin the run. […] The nitrogen and water flows were then opened, whereby the fermentor was ready for the addition of the overnight culture. The following was then added to the fermentor: (1) 300 mL of sterile, filtered LB broth, (2) an amount of xylose determined as a function of the desired initial sugar concentration, (3) an amount of ampicillin such that the initial concentration in the fermentor was always 100 mg/L, and (4) the overnight culture, whereby fermentation began. […]

Regarding `O=C[C@H](O)[C@@H](O)[C@H](O)CO` [xylose], the “xylose concentration found to inhibit cell growth and ethanol production” value is given as greater than 175 g/L.
